Source: article PMC7247319, “The mitochondria-targeted peptide SS-31 binds lipid bilayers and modulates surface electrostatics as a key component of its mechanism of action” (The Journal of Biological Chemistry, 2020)
Where a SMILES comes first, the peptide text is derived from it. [ ]: non-standard residue; d: D form. Dmt = Cc1cc(O)cc(C)c1C[C@H](N)C(=O)O

Test system: LUVs with 20% TOCL
Assay: CG-5N assay of Ca2+ accumulation at model membrane interface
Details: peptide titrated into LUVs with 20% TOCL prebound with Ca2+
Text: Figure 7. SS peptide effects on Ca^2+-membrane interactions and mitochondrial cation stress. A, profiles of surface potential decay (top) and ion distribution (bottom) based on GCS theory in the presence or absence of SS-31 (see supporting Results H for model description). B, effect of SS peptides on Ca^2+ accumulation at model membrane interfaces. […] C and D, effect of SS peptides on mitochondrial Ca^2+ uptake. C, time courses of TMRM or CG-5N emission in mitochondrial suspensions with ETH-129 in the absence (top) or presence (bottom) of SS-31 following the addition of NADH (black arrowheads) and CaCl2 (open arrowheads). See Fig. S18A for experimental details. […] Spectral deconvolution yielded the indicated components (see Fig. S19, A and B), which were used to quantify the area ratios of L2/iso in F (values shown are means ± S.D. (error bars) (n = 3). G, respirometry analysis. Mitochondria (1 mg ml^−1) were treated in the absence or presence of SS-31 (54.4 μM) or CaCl2 (1 mM) as indicated and measured for state 2 respiration (n = 10–12 each).
First, we measured the effects of SS peptides on the accumulation of Ca^2+ in the interfacial region of model membranes. […] We reasoned that the binding of Ca^2+ to the headgroup region of anionic lipid bilayers would reduce the bulk Ca^2+ detected by the CG-5N probe, providing a direct readout of Ca^2+ accumulation at the membrane interface. […]

## Cc1cc(O)cc(C)c1C[C@H](NC(=O)[C@H](N)CCCNC(=N)N)C(=O)N[C@@H](CCCCN)C(=O)N[C@@H](Cc1ccccc1)C(N)=O [SS-31, D-Arg-2′6′-dimethyl-Tyr-Lys-Phe-NH2] (H-[dR][Dmt]KF-NH2)
  release of Ca2+ from membrane interface (CG-5N response): released Ca^2+ from the membrane interface in a dose-dependent manner
